Laboratory results published in US12285034B2, “Human and non-human animal use of microbial anaplerotic oil” (HELIAE DEVELOPMENT, LLC, priority 2017, dated 2025).
Read-outs that look alike come from different tables or passages of the source.

What was measured:
[1] = system: Aurantiochytrium acetophilum HS399; experiment: Growth on propionate as sole carbon source (Example 9); assay type: cell-based; details: 10 g/L, pH 7
Description: FIG. 35 is a graphical representation of one implementation that illustrates results 3500 of growth of A. acetophilum HS399 with different carbon sources.

[2] = system: Aurantiochytrium acetophilum HS399; details: for OCFA / Total Fatty Acids: 73 h, 10 L fermenter
Protocol: […] In this implementation, the pH can be maintained at 7±1 in respective treatments.
In one implementation, fermenters may be used to culture A. acetophilum HS399. […] In this implementation, two treatments using different cyanocobalamin concentrations (0.00185, 0 μM) are compared in duplicates.

[3] = system: Aurantiochytrium acetophilum HS399; assay type: cell-based
Protocol: In this implementation, initially (24 h incubation), the culture pH may not be controlled, and the pH of the respective treatments can drift from 7.5 to 8. After 24 h incubation, the desired pH set point of each treatment can be set using the respective organic acids. […] The cultures are aerated at 1.4 vvm and maintained at 27° C. under axenic conditions. […] This medium also contains a trace element solution (5 ml/L) and a vitamin solution (1 ml/L). The trace element solution can contain (g/L): […] […] Residual glucose is analyzed from culture supernatant (5000 g; 5 min) using a colorimetric method based on glucose […] activity. Residual acetate and propionate are analyzed by HPLC using external standard.

[4] = system: Aurantiochytrium acetophilum HS399; assay type: cell-based; details: for OCFA / Total Fatty Acids / Total Lipids: harvest; for OCFA Productivity / Propionate deposition: 120 h
Protocol: Respective Erlenmeyer flasks (250 mL) are inoculated (1% v/v) in triplicates with a 24 h old culture of A. acetophilum HS399 and incubated in an orbital shaker at 180 rpm and 27° C.
Respective Erlenmeyer flasks contain 100 mL of a medium supplemented with (g/L): dextrose (100), ammonium acetate (4.6), NaCl (12.5), MgSO4 7H2O (2.5), KH2PO4 (0.5), KCl (0.5) and CaCl2 (0.1). This medium also contains trace element solution (5 ml/L) and vitamin solution (1 ml/L). The trace element solution contains (g/L): EDTA di-sodium salt (6), FeCl3 6H2O (0.29), […] (6.84), MnCl2 4H2O (0.86), ZnCl2 (0.06), CoCl2 6H2O (0.026), NiSO4 6H2O (0.052), CuSO4 5H2O (0.002), Na2MoO4H2O (0.005). The vitamin solution contains (mg/L): thiamine (100), biotin (0.5) and cyanocobalamin (0.5).
In this example, respective culture materials are autoclaved (e.g., 121° C., 15 min) and the media is filter sterilized before use. […] Daily samples are collected to analyze the cell dry weight, residual glucose, culture pH (see FIG. 15), and lipid and fatty acid composition of the cultures. Cell dry weights are analyzed by filtration (e.g., 0.2 μm filter media) using a vacuum and washed with a solution of ammonium bicarbonate. Residual glucose is analyzed using a colorimetric method based on glucose […] activity. Biomass for lipid analysis is centrifuged and washed using purified water. The washed biomass is freeze dried. Total lipids are analyzed using Folch method (AOAC 996.06) and the FAMES are analyzed by gas chromatography and flame ionization detection using nonadecanoic (C19:0) acid as an internal standard.

[5] = propionate 0 + 1 + 1 + 1 g/L (Day 5)
[6] = propionate 0 + 2 + 2 + 2 g/L (Day 5)
[7] = propionate 0 + 3 g/L (Day 5), listed as propionate
[8] = propionate 3 g/L (Day 5), listed as propionate

SMILES: CCC(=O)O [Propionate, propionic acid]
- growth on propionate as sole carbon source [1]: did not support growth above that of the starved treatment
- less propionic acid consumed without cyanocobalamin ([2]; 10 L fermenters, pH-auxostat, 0 μM vs with cyanocobalamin): 30%
- OCFA ([2]; cyanocobalamin 0 μM): 52.0 % TFA
- Total Fatty Acids ([2]; cyanocobalamin 0 μM): 56.9 % DW
- OCFA ([2]; cyanocobalamin 0.37 μM): 52.6 ± 0.5 % TFA
- Total Fatty Acids ([2]; cyanocobalamin 0.37 μM): 54.7 ± 0.5 % DW
- Propionate deposition ([2]; cyanocobalamin 0 μM): 65.7%
- gpropionate/gbiomass ([2]; cyanocobalamin 0 μM): 0.14
- Propionate deposition ([2]; cyanocobalamin 0.37 μM): 49.9%
- gpropionate/gbiomass ([2]; cyanocobalamin 0.37 μM): 0.18 ± 0.01
- time in which initial propionate is consumed ([2]; initial 3 g/L, pH 7±1, flask): ≤ 72 h
- effect on growth (cell dry weight, glucose) [3]: highly growth inhibitory
- Consumed propionate ([3]; pH 5 set point): 2.3 ± 0.2 g/L
- Propionic Acid Deposited ([3]; pH 5 set point): 30.9 ± 2.0%
- Consumed propionate ([3]; pH 6 set point): 2.4 ± 0.1 g/L
- Propionic Acid Deposited ([3]; pH 6 set point): 40.3 ± 1.6%
- effect on growth (cell dry weight) ([3]; pH 7): not growth inhibitory
- Consumed propionate ([3]; pH 7 set point): 1.0 ± 0.1 g/L
- Propionic Acid Deposited ([3]; pH 7 set point): 24.7 ± 1.0%
- Total Fatty Acid ([3]; propionic acid titrant, pH 5): 59.2 ± 3.1 % CDW
- Total Lipids ([3]; propionic acid titrant, pH 5): 75.0 ± 3.0 % CDW
- Total Fatty Acid ([3]; propionic acid titrant, pH 6): 63.4 ± 0.3 % CDW
- Total Lipids ([3]; propionic acid titrant, pH 6): 79.5 ± 1.5 % CDW
- OCFA ([3]; propionic acid titrant, pH 7): 6.3 % TFA
- Total Fatty Acid ([3]; propionic acid titrant, pH 7): 70.3 ± 2.8 % CDW
- Total Lipids ([3]; propionic acid titrant, pH 7): 87.5 ± 1.5 % CDW
- residual concentration giving some growth inhibition [4]: 1 g/L
- increase of OCFAs productivity by feeding propionate merely during lipogenesis ([4]; P3 vs P0+3): approximately 20%
- OCFA ([4]; propionate 0 + 1 + 1 + 1 g/L): 29.2 ± 0.4 % TFA
- Total Fatty Acids ([4]; propionate 0 + 1 + 1 + 1 g/L): 67.2 ± 5.0 % DW
- Total Lipids ([4]; propionate 0 + 1 + 1 + 1 g/L): 79.7 ± 0.6 % DW
- OCFA ([4]; propionate 0 + 2 + 2 + 2 g/L): 53.5 ± 0.8 % TFA
- Total Fatty Acids ([4]; propionate 0 + 2 + 2 + 2 g/L): 63.5 ± 1.6 % DW
- Total Lipids ([4]; propionate 0 + 2 + 2 + 2 g/L): 76.0 ± 1.0 % DW
- Total Fatty Acids ([4]; propionate 0 + 3 g/L): 66.0 ± 2.2 % DW
- Total Lipids ([4]; propionate 0 + 3 g/L): 79.5 ± 0.5 % DW
- OCFA ([4]; propionate 0 + 3 g/L (P0+3)): 27.6 ± 0.1 % TFA
- OCFA ([4]; propionate 0 + 3 g/L (P0+3), listed as propionate): 27.4 % TFA
- OCFA ([4]; propionate 3 g/L (P3)): 25.5 ± 0.2 % TFA
- OCFA ([4]; propionate 3 g/L (P3), listed as propionate): 25.2 % TFA
- Total Fatty Acids ([4]; propionate 3 g/L (day 0)): 64.8 ± 1.2 % DW
- Total Lipids ([4]; propionate 3 g/L (day 0)): 78.0 ± 0.0 % DW
- OCFA Productivity [4, 5]: 1.19 ± 0.03 g/L/day
- Propionate deposition [4, 5]: 59.6 ± 1.4%
- OCFA Productivity [4, 6]: 1.86 ± 0.04 g/L/day
- Propionate deposition [4, 6]: 46.7 ± 0.9%
- OCFA Productivity ([4]; propionate 0 + 3 g/L (Day 5)): 1.18 ± 0.02 g/L/day
- Propionate deposition ([4]; propionate 0 + 3 g/L (Day 5)): 59.3 ± 1.1%
- OCFA Productivity [4, 7]: 1.18 ± 0.02 g/L/day
- Propionate deposition [4, 7]: 59.3±1.1%
- OCFA Productivity ([4]; propionate 3 g/L (Day 5)): 1.04 ± 0.01 g/L/day
- Propionate deposition ([4]; propionate 3 g/L (Day 5)): 52.2 ± 0.7%
- OCFA Productivity [4, 8]: 1.18 ± 0.02 g/L/day
- Propionate deposition [4, 8]: 52.2±0.7%
